Here are results for five molecules from patent publication US20120220562A1, “Anti-Viral Compounds” (ABBOTT LABAORATORIES, priority 2011, published 2012).

Bounds are passed on as bounds.

The assay deals with HCV 1b-Con1 replicon. In words: HCV 1b-Con1 replicon assay in the presence of 5% FBS. Type of assay: cell-based. The conditions noted are these: Hepatitis C virus. For orientation: A replicon is a self-replicating genome or part of one, used to study replication in cells.

For orientation: EC50 means the concentration giving half of the maximal effect. Consider `COC(=O)N[C@H](C(=O)N1CCC[C@H]1c1nc2cc([C@H]3CC[C@H](c4ccc5[nH]c([C@@H]6CCCN6C(=O)[C@@H](NC(=O)OC)C(C)C)nc5c4)N3c3cc(F)c(N4C[C@H]5CCCC[C@H]5C4)c(F)c3)ccc2[nH]1)C(C)C` [Example 4.3, methyl {(2S)-1-[(2S)-2-{5-[(2R,5R)-1-{3,5-difluoro-4-[(3aR,7aS)-octahydro-2H-isoindol-2-yl]phenyl}-5-{2-[(2S)-1-{(2S)-2-[(methoxycarbonyl)amino]-3-methylbutanoyl}pyrrolidin-2-yl]-1H-benzimidazol-5-yl}pyrrolidin-2-yl]-1H-benzimidazol-2-yl}pyrrolidin-1-yl]-3-methyl-1-oxobutan-2-yl}carbamate], for which the EC50 was less than 0.1 nM. On to `COC(=O)N[C@H](C(=O)N1CCC[C@H]1c1nc2cc([C@H]3CC[C@H](c4ccc5[nH]c([C@@H]6CCCN6C(=O)[C@@H](NC(=O)OC)C(C)C)nc5c4)N3c3cc(Cl)c(N4CCCCC4)c(Cl)c3)ccc2[nH]1)C(C)C` [Example 4.4, methyl {(2S)-1-[(2S)-2-{5-[(2R,5R)-1-[3,5-dichloro-4-(piperidin-1-yl)phenyl]-5-{2-[(2S)-1-{(2S)-2-[(methoxycarbonyl)amino]-3-methylbutanoyl}pyrrolidin-2-yl]-1H-benzimidazol-5-yl}pyrrolidin-2-yl]-1H-benzimidazol-2-yl}pyrrolidin-1-yl]-3-methyl-1-oxobutan-2-yl}carbamate], for which the EC50 is less than 0.1 nM.

As for `COC(=O)N[C@H](C(=O)N1CCC[C@H]1c1nc2cc([C@H]3CC[C@H](c4ccc5[nH]c([C@@H]6CCCN6C(=O)[C@@H](NC(=O)OC)C(C)C)nc5c4)N3c3cc(F)c(N4CCCCC4)cc3F)ccc2[nH]1)C(C)C` [Example 4.5, methyl {(2S)-1-[(2S)-2-{5-[(2R,5R)-1-[2,5-difluoro-4-(piperidin-1-yl)phenyl]-5-{2-[(2S)-1-{(2S)-2-[(methoxycarbonyl)amino]-3-methylbutanoyl}pyrrolidin-2-yl]-1H-benzimidazol-5-yl}pyrrolidin-2-yl]-1H-benzimidazol-2-yl}pyrrolidin-1-yl]-3-methyl-1-oxobutan-2-yl}carbamate], the EC50 is less than 0.1 nM. In the case of `COC(=O)N[C@H](C(=O)N1CCC[C@H]1c1nc2cc([C@H]3CC[C@H](c4ccc5[nH]c([C@@H]6CCCN6C(=O)[C@@H](NC(=O)OC)C(C)C)nc5c4)N3c3cc(F)c(N4[C@H](C)CCC[C@@H]4C)c(F)c3)ccc2[nH]1)C(C)C` [Example 4.6, methyl {(2S)-1-[(2S)-2-{5-[(2R,5R)-1-{4-[(2R,6S)-2,6-dimethylpiperidin-1-yl]-3,5-difluorophenyl}-5-{2-[(2S)-1-{(2S)-2-[(methoxycarbonyl)amino]-3-methylbutanoyl}pyrrolidin-2-yl]-1H-benzimidazol-5-yl}pyrrolidin-2-yl]-1H-benzimidazol-2-yl}pyrrolidin-1-yl]-3-methyl-1-oxobutan-2-yl}carbamate], the half-maximal effective concentration (EC50) was less than 0.1 nM.

Consider `COC(=O)N[C@H](C(=O)N1CCC[C@H]1c1nc2cc([C@H]3CC[C@H](c4ccc5[nH]c([C@@H]6CCCN6C(=O)[C@@H](NC(=O)OC)C(C)C)nc5c4)N3c3cc(F)c(N4CCCCC4)c(F)c3F)ccc2[nH]1)C(C)C` [Example 4.7, methyl {(2S)-1-[(2S)-2-(5-{(2R,5R)-5-{2-[(2S)-1-{(2S)-2-[(methoxycarbonyl)amino]-3-methylbutanoyl}pyrrolidin-2-yl]-1H-benzimidazol-5-yl}-1-[2,3,5-trifluoro-4-(piperidin-1-yl)phenyl]pyrrolidin-2-yl}-1H-benzimidazol-2-yl)pyrrolidin-1-yl]-3-methyl-1-oxobutan-2-yl}carbamate], for which the EC50 is less than 0.1 nM.
